For orientation: AC50 means the midpoint of the concentration-response curve, whichever way the signal moves.

From ChEMBL document CHEMBL1201862, “PubChem BioAssay data set” (2004) come the findings set out here.

The target of assay [1] is T1, RNA-binding protein pos-1 (Caenorhabditis elegans, UniProt G5EF15).
T1 sequence (G5EF15 whole entry): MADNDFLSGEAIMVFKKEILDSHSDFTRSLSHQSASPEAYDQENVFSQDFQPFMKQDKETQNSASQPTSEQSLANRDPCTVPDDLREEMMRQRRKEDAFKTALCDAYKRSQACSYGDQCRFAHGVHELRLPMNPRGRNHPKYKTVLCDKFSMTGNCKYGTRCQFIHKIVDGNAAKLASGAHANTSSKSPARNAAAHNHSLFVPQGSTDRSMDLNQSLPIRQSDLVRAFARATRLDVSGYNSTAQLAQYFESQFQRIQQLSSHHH
Description: inhibitors of POS-1/mex-3 RNA binding, dose response, biochemical, fluorescence polarization (AID 1964).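 Note: purified POS-1 fused to maltose binding protein made in E. coli; potency of compounds blocking POS-1 binding to fluorescent RNA.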 A general note: In fluorescence polarisation assays a small probe gives low polarisation when free and higher when bound to something large.

For assay [2], the target named is T2, Zinc finger protein mex-5 (Caenorhabditis elegans, UniProt Q9XUB2).
T2 sequence (Q9XUB2 whole entry): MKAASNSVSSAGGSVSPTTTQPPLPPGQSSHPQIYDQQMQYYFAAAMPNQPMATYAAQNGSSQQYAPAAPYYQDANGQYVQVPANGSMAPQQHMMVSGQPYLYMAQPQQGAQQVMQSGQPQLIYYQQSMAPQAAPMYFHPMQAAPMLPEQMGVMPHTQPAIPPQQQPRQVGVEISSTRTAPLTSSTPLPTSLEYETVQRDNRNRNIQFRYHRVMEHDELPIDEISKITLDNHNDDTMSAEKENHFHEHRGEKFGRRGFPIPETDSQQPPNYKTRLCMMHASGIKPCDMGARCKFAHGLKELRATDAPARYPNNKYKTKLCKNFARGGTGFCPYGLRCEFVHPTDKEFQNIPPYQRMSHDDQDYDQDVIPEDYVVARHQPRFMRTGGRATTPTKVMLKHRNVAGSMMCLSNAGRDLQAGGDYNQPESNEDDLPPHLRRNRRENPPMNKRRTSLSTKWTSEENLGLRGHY
Description: MEX-5/TCR-2 RNA interaction inhibitors, dose response, biochemical, C. elegans, fluorescence polarization (AID 1960).

The target in assay [3] is T3, Calpain-2 catalytic subunit (Sus scrofa, UniProt P43367).
T3 sequence (P43367 whole entry): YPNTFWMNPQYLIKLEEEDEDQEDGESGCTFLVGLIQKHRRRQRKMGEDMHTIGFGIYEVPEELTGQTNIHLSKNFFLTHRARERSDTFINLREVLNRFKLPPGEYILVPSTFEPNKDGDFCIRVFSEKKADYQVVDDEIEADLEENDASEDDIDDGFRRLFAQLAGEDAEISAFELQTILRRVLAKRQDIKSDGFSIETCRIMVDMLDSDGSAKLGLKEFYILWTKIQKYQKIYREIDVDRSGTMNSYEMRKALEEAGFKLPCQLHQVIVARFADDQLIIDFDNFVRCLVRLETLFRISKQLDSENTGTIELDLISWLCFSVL
Description: pig calpain II inhibitor potency, dose response, biochemical, fluorogenic peptide substrate (AID 1420). Format: functional.

The nature of assay [4]: inhibitors of firefly luciferase expression or activity, dose response, H4 neuroglioma cells, luminescence (AID 1990). Format: functional, cell-based.
Assay [5] in a line: inhibitors of SNCA 5'UTR-driven reporter translation, confirmation, H4 neuroglioma cells, luminescence (AID 1988). The format is functional, cell-based.
Assay [6] can be described thus: Luminescence Cell-Based Dose Response HTS to Identify Inhibitors of 5'UTR Stem-Loop Driven Prion Protein mRNA Translation in H4 Neuroglioblastoma Cells. [Related pubchem assays: 1827 (Project Summary), 1813 (Primary HTS)]. Format: functional.
A short description of assay [7]: Shn3 3'UTR reporter inhibitors, dose response, cell-based, Clone20 osteoblasts, firefly luciferase, cherry-picked (AID 624132).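 Note: firefly luciferase luminescence from reporter carrying the Shn3 3'UTR in osteoblasts.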 Format: functional.
Assay [8] can be described thus: control 3'UTR Renilla luciferase suppression, dose response, counter-screen for Shn3 inhibitor project, cell-based, Clone20-Shn3RL, cherry-picked (AID 624133). Format: functional.
The subject of the next assay is H9c2. Briefly: cells. The format is functional, cell-based. The following applies: Rattus norvegicus, H9c2, Myocardium.
Assay [9] concerns the target T4, Fatty acid synthase (Homo sapiens, UniProt P49327). Description: FAS thioesterase domain inhibitors, dose response, biochemical, endpoint fluorescence intensity, uHTS hits (AID 624327).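 Note: fluorescence from hydrolysis of an O-methyl fluorescein acyl ester substrate by the enzyme.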 Format: functional.
Assay [10] has as its target T4, Fatty acid synthase. Description: FAS thioesterase domain inhibitors, dose response, biochemical, kinetic fluorescence intensity (AID 624326).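 Note: rate of fluorescence rise from hydrolysis of a fluorogenic O-methyl fluorescein ester substrate.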 The format is functional.
Assay [11] addresses T5, Corticotropin-releasing factor receptor 2/Corticotropin-releasing factor-binding protein (Homo sapiens, UniProt P24387+Q13324).
T5 sequence (Q13324 whole entry): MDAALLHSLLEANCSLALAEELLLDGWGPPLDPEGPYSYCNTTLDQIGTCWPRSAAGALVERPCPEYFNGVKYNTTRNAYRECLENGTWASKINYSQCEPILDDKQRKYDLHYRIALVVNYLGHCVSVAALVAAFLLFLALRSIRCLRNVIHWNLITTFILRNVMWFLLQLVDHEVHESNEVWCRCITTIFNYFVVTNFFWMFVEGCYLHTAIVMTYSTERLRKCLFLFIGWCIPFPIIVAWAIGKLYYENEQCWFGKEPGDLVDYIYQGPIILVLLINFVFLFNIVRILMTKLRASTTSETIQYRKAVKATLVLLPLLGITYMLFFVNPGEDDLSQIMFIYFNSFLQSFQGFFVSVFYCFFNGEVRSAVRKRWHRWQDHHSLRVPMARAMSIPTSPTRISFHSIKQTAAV
T5 sequence (P24387 whole entry): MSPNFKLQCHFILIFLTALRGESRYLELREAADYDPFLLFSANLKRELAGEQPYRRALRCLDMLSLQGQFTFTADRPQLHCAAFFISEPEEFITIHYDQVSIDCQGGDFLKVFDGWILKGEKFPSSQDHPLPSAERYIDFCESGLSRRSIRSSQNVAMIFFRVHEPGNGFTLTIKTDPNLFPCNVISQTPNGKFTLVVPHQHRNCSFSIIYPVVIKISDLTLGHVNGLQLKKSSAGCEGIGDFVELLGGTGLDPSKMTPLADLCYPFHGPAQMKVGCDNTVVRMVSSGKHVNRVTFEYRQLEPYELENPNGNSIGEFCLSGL
Briefly: Dose Response confirmation of uHTS hits for small molecule antagonists of the CRF-binding protein and CRF-R2 receptor complex. The format is functional. The following applies: read-out: IC50_Mean.

Assay [12] addresses T5, Corticotropin-releasing factor receptor 2/Corticotropin-releasing factor-binding protein. Briefly: activators of CRF receptor 2 with binding protein – uHTS hits, confirmation (AID 602473). The format is functional. Conditions: read-out: EC50_Mean.
Assay [13] can be described thus: inhibitors of intracellular T. cruzi replication, confirmation, NIH3T3 host cells, beta-gal luminescence (AID 2044).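 Note: intracellular parasites grown in NIH/3T3 mouse fibroblasts as host cells; luminescent beta-galactosidase reporter signal from transgenic T. cruzi replicating inside host cells; inhibitors lower the luminescence signal.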 Format: functional, cell-based.
The nature of assay [14]: NIH-3T3 fibroblast cytotoxicity, dose response, cytotoxicity control, cell-based, fluorescence, Alamar Blue, secondary assay (AID 2327).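 Note: NIH-3T3 mouse fibroblasts cultured with fluconazole at 8 µg/mL.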 Format: functional.
Assay [15] in a line: cytotoxicity toward NIH3T3 fibroblasts, dose response, counter-screen, cell-based, ATP luminescence, mouse fibroblasts (AID 2010).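 Note: cells exposed to compound for about 90 hours before reading.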 Format: functional. A general note: The purpose of a counterscreen is to sort out artefacts and off-target activity.

Active and inactive are the calls of the source.

T4 sequence (P49327 whole entry, the tested form may be a part): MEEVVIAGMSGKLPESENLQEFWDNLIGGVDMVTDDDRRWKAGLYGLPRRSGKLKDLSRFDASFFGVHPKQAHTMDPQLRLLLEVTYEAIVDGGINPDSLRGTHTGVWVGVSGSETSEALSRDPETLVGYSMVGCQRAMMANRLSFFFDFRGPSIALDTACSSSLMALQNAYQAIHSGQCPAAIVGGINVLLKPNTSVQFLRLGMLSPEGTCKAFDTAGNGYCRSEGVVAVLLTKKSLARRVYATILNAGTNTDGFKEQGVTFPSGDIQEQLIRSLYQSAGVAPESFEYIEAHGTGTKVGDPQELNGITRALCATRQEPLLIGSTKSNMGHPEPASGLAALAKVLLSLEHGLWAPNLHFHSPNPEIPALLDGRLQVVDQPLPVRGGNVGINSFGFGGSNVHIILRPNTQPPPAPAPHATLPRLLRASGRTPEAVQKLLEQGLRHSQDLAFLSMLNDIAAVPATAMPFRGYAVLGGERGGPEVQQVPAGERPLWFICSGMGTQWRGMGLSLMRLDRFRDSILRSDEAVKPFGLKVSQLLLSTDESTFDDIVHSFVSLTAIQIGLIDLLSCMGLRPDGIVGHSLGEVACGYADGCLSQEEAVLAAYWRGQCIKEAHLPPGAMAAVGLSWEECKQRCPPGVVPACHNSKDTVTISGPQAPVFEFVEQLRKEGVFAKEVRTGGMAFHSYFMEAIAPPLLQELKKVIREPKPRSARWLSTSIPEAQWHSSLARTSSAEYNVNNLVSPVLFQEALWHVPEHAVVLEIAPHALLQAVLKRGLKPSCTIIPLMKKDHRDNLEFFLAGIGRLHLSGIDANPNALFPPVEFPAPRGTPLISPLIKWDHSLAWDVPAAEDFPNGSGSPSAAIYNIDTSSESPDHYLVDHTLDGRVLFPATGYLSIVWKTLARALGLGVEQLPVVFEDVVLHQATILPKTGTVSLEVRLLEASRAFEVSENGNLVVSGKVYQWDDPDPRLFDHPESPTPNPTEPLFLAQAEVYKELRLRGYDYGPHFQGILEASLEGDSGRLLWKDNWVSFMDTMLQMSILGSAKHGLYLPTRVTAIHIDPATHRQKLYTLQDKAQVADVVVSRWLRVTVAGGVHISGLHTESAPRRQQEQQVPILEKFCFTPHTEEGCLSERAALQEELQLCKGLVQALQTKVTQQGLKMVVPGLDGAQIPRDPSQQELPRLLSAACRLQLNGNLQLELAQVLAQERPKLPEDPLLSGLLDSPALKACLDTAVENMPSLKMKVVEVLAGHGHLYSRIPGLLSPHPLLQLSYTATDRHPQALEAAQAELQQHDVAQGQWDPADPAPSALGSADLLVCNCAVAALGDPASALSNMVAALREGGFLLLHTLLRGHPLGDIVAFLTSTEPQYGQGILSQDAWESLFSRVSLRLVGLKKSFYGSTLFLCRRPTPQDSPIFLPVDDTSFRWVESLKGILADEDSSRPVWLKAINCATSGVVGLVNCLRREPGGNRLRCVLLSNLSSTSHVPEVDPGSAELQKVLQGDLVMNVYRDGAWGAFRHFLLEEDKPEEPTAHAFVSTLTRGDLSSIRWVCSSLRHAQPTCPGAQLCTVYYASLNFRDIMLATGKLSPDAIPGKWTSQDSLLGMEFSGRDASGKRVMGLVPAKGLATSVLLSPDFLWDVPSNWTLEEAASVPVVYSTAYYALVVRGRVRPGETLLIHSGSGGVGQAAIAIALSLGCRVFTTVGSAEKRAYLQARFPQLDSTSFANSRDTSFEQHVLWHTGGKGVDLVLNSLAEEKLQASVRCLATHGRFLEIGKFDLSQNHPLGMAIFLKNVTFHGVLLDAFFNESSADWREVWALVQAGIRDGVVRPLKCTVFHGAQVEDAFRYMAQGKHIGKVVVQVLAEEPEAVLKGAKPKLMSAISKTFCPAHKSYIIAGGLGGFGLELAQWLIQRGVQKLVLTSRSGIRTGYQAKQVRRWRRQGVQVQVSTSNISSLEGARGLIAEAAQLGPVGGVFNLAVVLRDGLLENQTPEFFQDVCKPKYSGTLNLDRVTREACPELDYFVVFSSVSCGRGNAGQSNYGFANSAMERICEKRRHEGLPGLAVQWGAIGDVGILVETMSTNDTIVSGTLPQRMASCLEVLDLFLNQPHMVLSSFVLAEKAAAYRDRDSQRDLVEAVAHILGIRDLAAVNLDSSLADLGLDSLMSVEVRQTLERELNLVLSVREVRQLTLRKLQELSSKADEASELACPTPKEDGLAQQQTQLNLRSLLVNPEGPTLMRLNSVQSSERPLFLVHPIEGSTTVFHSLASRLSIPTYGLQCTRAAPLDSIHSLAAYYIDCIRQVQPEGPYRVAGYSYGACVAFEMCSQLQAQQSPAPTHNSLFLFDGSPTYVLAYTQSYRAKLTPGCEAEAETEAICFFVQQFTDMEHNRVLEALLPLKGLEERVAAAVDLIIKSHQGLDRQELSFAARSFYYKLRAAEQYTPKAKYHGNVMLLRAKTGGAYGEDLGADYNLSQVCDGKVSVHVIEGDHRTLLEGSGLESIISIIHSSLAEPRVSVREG

With `COc1cc(C2C(C#N)=C(N)OC3=C2C(=O)CC(C)(C)C3)cc([N+](=O)[O-])c1O` (stereo unspecified), the EC50 in assay [1] and in assay [2] was > 300 µM (not active) throughout.

As to `COc1cc(OC)cc(C(=O)Nc2ccc3c(c2)COC3=O)c1`, the IC50 in [3] was 5.36 µM (not active).

Take `Cc1cc(C=C2C(=O)c3ccccc3C2=O)c(C)n1-c1ccc(C(=O)O)cc1`: the EC50 in [1] and in assay [2] was > 300 µM (not active) in each case.

For `CCc1cccc(CC)c1NC(=O)c1cc(CN2C(=O)c3ccccc3C2=O)ccc1OC`, in [3], the IC50 is 3.81 µM (not active).

Take `c1ccc(Oc2nc(Oc3ccccc3)nc(N3CCOCC3)n2)cc1`: the IC50 in assay [3] is < 0.4 µM (not active).

Consider `CC(=O)Nc1nc2ccccc2n1Cc1ccccc1C`, for which the figures for the EC50 in assay [4], in [5] and in assay [6] were 14.5 µM (active), 11.5 µM (active) and 14.2 µM (active), respectively.

Regarding `COc1ccc(C2=NOC(Cn3c(Cc4ccc(Cl)cc4)nc4c3c(=O)n(C)c(=O)n4C)C2)cc1` (stereo unspecified), the EC50 in assay [4], in assay [5] and in assay [6] was > 120 µM (not active) in each case.

As for `CCOc1ccccc1N1CCN(C(=O)CNC(=O)c2ccccc2F)CC1`, the EC50 in [1] and in assay [2] was > 300 µM (not active) throughout.

On to `CCCc1nc([N+](=O)[O-])c(S(=O)(=O)c2ccccc2)n1CC(C)C`, for which the values for the AC50 in [7] and in assay [8] were 7.39 µM (active) and 25.9 µM (active), respectively.

In the case of `CC(C)OC(=O)CSc1nnc(COc2ccc([N+](=O)[O-])cc2)n1C`, in [3], the IC50 is on record as 9.11 µM (not active).

Turning to `O=c1[nH]c(CSc2ncccn2)nc2c1cnn2-c1ccccc1`, the EC50 in assay [1] was 166 µM (inconclusive); in [2], > 300 µM (not active).

Consider `O=C(CCN1C(=O)/C(=C/c2ccc3c(c2)OCO3)SC1=S)Nc1ccccc1`, for which the IC50 in assay [3] was 24.8 µM (not active).

`O=C(CSc1nc(O)c2ccccc2n1)c1ccc(O)cc1O`: the IC50 in the assay on H9c2 was > 79 µM (inactive).

On to `Cc1ccc(C(=O)NNC(=O)c2ccc3ncccc3c2)cc1`, for which the IC50 in assay [3] is recorded as 9.29 µM (not active).

On to `COc1ccc(-n2c(=S)[nH]c3cc(C(=O)Nc4ccc(OC)c(OC)c4)ccc3c2=O)cc1`, for which the IC50 in assay [3] was 22.5 µM (not active).

As for `O=C(CNC(=O)c1[nH]cnc1C(=O)NC(c1ccccc1)c1ccccc1)OCc1ccccc1`, the IC50 in the assay on H9c2 is > 79 µM (inactive).

Regarding `CSCCC(NS(=O)(=O)c1ccccc1)C(=O)OCc1cc(=O)oc2cc(O)ccc12` (stereo unspecified), the IC50 with H9c2 is > 79 µM (inactive).

Consider `COc1ccc(C(=O)NNC2=Nc3cccc4cccc2c34)cc1`, for which the figures for the EC50 in assay [4], in assay [5] and in assay [6] were > 120 µM (not active), > 120 µM (not active) and 16.6 µM (active), respectively.

As to `Cn1nc(CC(=O)N2CCN(c3ccccc3)CC2)c2ccccc2c1=O`, the IC50 in assay [3] is reported as 13.1 µM (not active).

With `Cc1ccc(-c2nnc(O)c3ccccc23)cc1S(N)(=O)=O`, the IC50 with H9c2 was 21.8 µM (active).

Regarding `COc1ccc(OC)c(C2=C/C(=C/c3ccccn3)C(=O)O2)c1`, the EC50 is > 300 µM (not active) in assay [1] and 45.8 µM (active) in assay [2].

For `CC(C)c1ccc(Nc2c([N+](=O)[O-])c(=O)n(C)c3ccccc23)cc1`, in assay [3], the IC50 is recorded as 3.37 µM (not active).

For `CC(C)(C)c1ccc(OCCC(=O)OCC(=O)NC2CCCCC2)cc1`, the IC50 on Fatty acid synthase [9] is 8.28 µM (active); on Fatty acid synthase [10] it was 5.35 µM (active).

In the case of `O=C(Oc1cccc(N2C(=O)C3C4c5ccccc5C(c5ccccc54)C3C2=O)c1)c1ccco1` (stereo unspecified), the IC50 was 33.4 µM (inactive) on Fatty acid synthase [9] and 28.5 µM (inactive) at Fatty acid synthase [10].

As to `C[C@H](NC(=O)C1CCN(S(=O)(=O)c2ccccc2)CC1)C(=O)NCc1ccc(Cl)c(Cl)c1`, the IC50 is 12.4 µM (active) at Fatty acid synthase [9] and 14.5 µM (active) at Fatty acid synthase [10].

Take `O=C(Nc1ccccc1)c1nc[nH]c1C(=O)NCCNC(=O)c1[nH]cnc1C(=O)Nc1ccccc1`: the IC50 with H9c2 is > 79 µM (inactive).

For `Cc1c(Cl)c(=O)oc2cc(OCC(=O)N3CCCC(C)C3)ccc12` (stereo unspecified), the IC50 was 6.55 µM (active) on Fatty acid synthase [9] and 10.3 µM (active) on Fatty acid synthase [10].

With `COc1ccc(CCn2c(=O)c3cccnc3n(Cc3ccc([N+](=O)[O-])cc3)c2=O)cc1OC`, the IC50 in the assay on H9c2 is > 79 µM (inactive).

For the molecule `O=C(COc1ccc2c3c(c(=O)oc2c1)CCC3)N1CCN(c2ccccc2)CC1`, the figures for the IC50 on Fatty acid synthase [9] and at Fatty acid synthase [10] were 12.2 µM (active) and 8.68 µM (active), respectively.

For the molecule `C=CCOC(=O)COc1ccc2c3c(c(=O)oc2c1)CCCC3`, the IC50 in the assay on H9c2 is 14.5 µM (active).

With `COCCn1cnc2c(c1=O)c1nc3ccccc3nc1n2/N=C/c1cccc(OC)c1`, the figures for the IC50 (in assay [11]; in the assay on H9c2) were > 47.1 µM (inactive) and 24.5 µM (active), respectively. Besides, the EC50 in assay [12] is > 53 µM (inactive).

As for `COc1ccc2[nH]c3c(c2c1)CCN1C(=O)C(CC(=O)NCCC2=CCCCC2)C[C@H](C(=O)N2CCOCC2)[C@@]31CCC1CCCC1` (stereo partly specified), the IC50 at Fatty acid synthase [9] is 44.9 µM (inactive); on Fatty acid synthase [10], 80 µM (inactive).

In the case of `Nc1c(S(=O)(=O)c2cccc(Cl)c2)c2nc3ccccc3nc2n1/N=C/c1ccc(O)c(O)c1`, the EC50 in [13] is 3.16 µM (active); in assay [14], > 160 µM (inconclusive); in [4] it was 11.4 µM (active); in assay [5], 9.66 µM (active); in assay [6] it was 12.5 µM (active); in [15], 6.98 µM (active).

For the molecule `COC(=O)N/N=C/c1cn(Cc2ccc(F)cc2)c2ccccc12`, the EC50 in [4] is 9.2 µM (active); in assay [5], 7.94 µM (active); in assay [6], 12.8 µM (active).
